Experimental data taken from PubChem BioAssay (NCI).
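GI50 marks 50% less growth. The concentration for full growth arrest is given as TGI.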

Experiments:
Assay in all cases: NCI tumour cell line growth inhibition, 384-well format
[1] = tested on: A498 renal
[2] = tested on: BT-549 breast
[3] = tested on: CAKI-1 renal
[4] = tested on: CCRF-CEM leukemia
[5] = tested on: COLO 205 colon
[6] = tested on: HCT-15 colon
[7] = tested on: HOP-62 NSCLC
[8] = tested on: HOP-92 NSCLC
[9] = tested on: HS 578T breast
[10] = tested on: HT29 colon
[11] = tested on: IGROV1 ovarian
[12] = tested on: LOX IMVI melanoma
[13] = tested on: M14 melanoma
[14] = tested on: MALME-3M melanoma
[15] = tested on: MDA-MB-231 breast
[16] = tested on: MDA-MB-435 melanoma
[17] = tested on: MDA-MB-468 breast
[18] = tested on: MOLT-4 leukemia
[19] = tested on: NCI-H226 lung
[20] = tested on: NCI-H23 lung
[21] = tested on: NCI-H322M lung
[22] = tested on: NCI-H460 NSCLC
[23] = tested on: NCI-H522 lung
[24] = tested on: NCI/ADR-RES ovarian
[25] = tested on: OVCAR-3 ovarian
[26] = tested on: OVCAR-4 ovarian
[27] = tested on: OVCAR-5 ovarian
[28] = tested on: OVCAR-8 ovarian
[29] = tested on: PC-3 prostate
[30] = tested on: RPMI-8226 leukemia
[31] = tested on: RXF 393 renal
[32] = tested on: SF-268 CNS
[33] = tested on: SF-295 CNS
[34] = tested on: SF-539 CNS
[35] = tested on: SK-MEL-2 melanoma
[36] = tested on: SK-MEL-28 melanoma
[37] = tested on: SK-MEL-5 melanoma
[38] = tested on: SK-OV-3 ovarian
[39] = tested on: SN12C renal
[40] = tested on: SNB-19 CNS
[41] = tested on: SNB-75 CNS
[42] = tested on: T-47D breast
[43] = tested on: TK-10 renal
[44] = tested on: U251 glioblastoma
[45] = tested on: UACC-257 melanoma
[46] = tested on: UACC-62 melanoma
[47] = tested on: UO-31 renal

N#CCC1(n2cc(-c3ncnc4[nH]ccc34)cn2)CN(C2CCN(C(=O)c3ccnc(C(F)(F)F)c3F)CC2)C1
GI50 [1]: > 100 µM
TGI [1]: > 100 µM
GI50 [2]: 50.4 µM
TGI [2]: > 100 µM
GI50 [3]: > 84.9 µM
TGI [3]: > 100 µM
GI50 [4]: 20.6 µM
TGI [4]: 44.9 µM
GI50 [5]: 28.5 µM
TGI [5]: 70.6 µM
GI50 [6]: > 78.9 µM
TGI [6]: > 100 µM
GI50 [7]: > 68.2 µM
TGI [7]: > 100 µM
GI50 [8]: 40.1 µM
TGI [8]: > 100 µM
GI50 [9]: 30.9 µM
TGI [9]: 92.9 µM
GI50 [10]: > 73 µM
TGI [10]: > 100 µM
GI50 [11]: > 76 µM
TGI [11]: > 100 µM
GI50 [12]: > 100 µM
TGI [12]: > 100 µM
GI50 [13]: > 88.6 µM
TGI [13]: > 100 µM
GI50 [14]: > 75.4 µM
TGI [14]: > 100 µM
GI50 [15]: 45.8 µM
TGI [15]: > 100 µM
GI50 [16]: > 100 µM
TGI [16]: > 100 µM
GI50 [17]: 17.6 µM
TGI [17]: 50.5 µM
GI50 [18]: 16.8 µM
TGI [18]: 35.4 µM
GI50 [19]: 33.5 µM
TGI [19]: > 82.9 µM
GI50 [20]: 31.7 µM
TGI [20]: > 100 µM
GI50 [21]: > 100 µM
TGI [21]: > 100 µM
GI50 [22]: 49.6 µM
TGI [22]: > 100 µM
GI50 [23]: 18.4 µM
TGI [23]: 39.2 µM
GI50 [24]: > 100 µM
TGI [24]: > 100 µM
GI50 [25]: > 71.5 µM
TGI [25]: > 100 µM
GI50 [26]: > 100 µM
TGI [26]: > 100 µM
GI50 [27]: > 100 µM
TGI [27]: > 100 µM
GI50 [28]: > 100 µM
TGI [28]: > 100 µM
GI50 [29]: > 100 µM
TGI [29]: > 100 µM
GI50 [30]: 22.2 µM
TGI [30]: 65.7 µM
GI50 [31]: 58.3 µM
TGI [31]: > 100 µM
GI50 [32]: > 39.8 µM
TGI [32]: > 69.3 µM
GI50 [33]: 72.9 µM
TGI [33]: > 100 µM
GI50 [34]: > 76.2 µM
TGI [34]: > 100 µM
GI50 [35]: > 100 µM
TGI [35]: > 100 µM
GI50 [36]: > 100 µM
TGI [36]: > 100 µM
GI50 [37]: > 41.9 µM
TGI [37]: > 70.7 µM
GI50 [38]: > 73.7 µM
TGI [38]: > 100 µM
GI50 [39]: 83.1 µM
TGI [39]: > 100 µM
GI50 [40]: > 100 µM
TGI [40]: > 100 µM
GI50 [41]: > 58 µM
TGI [41]: > 100 µM
GI50 [42]: 49.6 µM
TGI [42]: > 100 µM
GI50 [43]: > 100 µM
TGI [43]: > 100 µM
GI50 [44]: > 100 µM
TGI [44]: > 100 µM
GI50 [45]: > 81.8 µM
TGI [45]: > 100 µM
GI50 [46]: > 61.3 µM
TGI [46]: > 100 µM
GI50 [47]: 72.5 µM
TGI [47]: > 100 µM

CNCc1ccc(-c2[nH]c3cc(F)cc4c3c2CCNC4=O)cc1
GI50 [1]: 15.7 µM
TGI [1]: 29.3 µM
GI50 [2]: 11.8 µM
TGI [2]: 24.2 µM
GI50 [3]: 7.56 µM
TGI [3]: 19.8 µM
GI50 [4]: 3.68 µM
TGI [4]: 13.1 µM
GI50 [5]: 9.97 µM
TGI [5]: 23.1 µM
GI50 [6]: 15.1 µM
TGI [6]: 31.1 µM
GI50 [7]: 9.39 µM
TGI [7]: 23.4 µM
GI50 [8]: 12.9 µM
TGI [8]: 27.9 µM
GI50 [9]: 10.4 µM
TGI [9]: 22.4 µM
GI50 [10]: 10 µM
TGI [10]: 23.4 µM
GI50 [11]: 10.4 µM
TGI [11]: 25.4 µM
GI50 [12]: 13 µM
TGI [12]: 26 µM
GI50 [13]: 14.7 µM
TGI [13]: 28 µM
GI50 [14]: 16.9 µM
TGI [14]: 30.7 µM
GI50 [15]: 8.58 µM
TGI [15]: 21.8 µM
GI50 [16]: 19 µM
TGI [16]: 34.2 µM
GI50 [17]: 4.13 µM
TGI [17]: 11.5 µM
GI50 [18]: 2.17 µM
TGI [18]: 5.64 µM
GI50 [19]: 7.9 µM
TGI [19]: 21.9 µM
GI50 [20]: 12.1 µM
TGI [20]: 24.8 µM
GI50 [21]: 17.2 µM
TGI [21]: 32.4 µM
GI50 [22]: 6.31 µM
TGI [22]: 19.6 µM
GI50 [23]: 15.6 µM
TGI [23]: 29.3 µM
GI50 [24]: 38.7 µM
TGI [24]: > 92.6 µM
GI50 [25]: 16 µM
TGI [25]: 31 µM
GI50 [26]: 21 µM
TGI [26]: 38.2 µM
GI50 [27]: 15.8 µM
TGI [27]: 38.9 µM
GI50 [28]: 10.4 µM
TGI [28]: 23.7 µM
GI50 [29]: 16.1 µM
TGI [29]: 38 µM
GI50 [30]: 8.37 µM
TGI [30]: 21.6 µM
GI50 [31]: 10.6 µM
TGI [31]: 23.8 µM
GI50 [32]: 14.1 µM
TGI [32]: 29.1 µM
GI50 [33]: 8.3 µM
TGI [33]: 22.4 µM
GI50 [34]: 12.4 µM
TGI [34]: 25.1 µM
GI50 [35]: 11.9 µM
TGI [35]: 24.3 µM
GI50 [36]: 15.2 µM
TGI [36]: 28.8 µM
GI50 [37]: 6.05 µM
TGI [37]: 12.1 µM
GI50 [38]: 20.6 µM
TGI [38]: 45.3 µM
GI50 [39]: 14.9 µM
TGI [39]: 31 µM
GI50 [40]: 19 µM
TGI [40]: > 48.4 µM
GI50 [41]: 13.2 µM
TGI [41]: 26.4 µM
GI50 [42]: 16.9 µM
TGI [42]: 36.9 µM
GI50 [43]: 18.8 µM
TGI [43]: 46.5 µM
GI50 [44]: 14.4 µM
TGI [44]: 32.5 µM
GI50 [45]: 12.8 µM
TGI [45]: 26.4 µM
GI50 [46]: 12.4 µM
TGI [46]: 25 µM
GI50 [47]: 12.1 µM
TGI [47]: 28.5 µM
